Results reported in patent US7582660B2, “2-thio-substituted imidazole derivatives and their use in pharmaceutics” (c-a-i-r biosciences GmbH, priority 2002, dated 2009).

How the values were obtained:
IL-1β [1] = assay: In vitro test with PBMCs, LPS-stimulated IL-1β release (ELISA); type: cell-based; settings: human PBMCs, LPS 4 hours, read-out: IC50 (μM) PBMCA IL-1β
TNF-α [2] = assay: In vitro test with human whole blood, LPS-stimulated TNFα release (ELISA); type: cell-based; settings: 1 μg/ml LPS 4 hours, read-out: K50 (μM) Whole blood TNF-α
Method: (§1) They may be administered in one individual dose or in a plurality of doses. The activity spectrum of the compounds as inhibitors of cytokine release was examined using the test systems below, as described by C. Donat and S. Laufer in Arch. Pharm. Pharm. […] 1, 1-40. 2000.
(§2) In Vitro Test with Human Whole Blood
(§3) The reaction is stopped by placing the samples on ice, adding DPBS buffer and then centrifuging at 1000 g for 15 min. The amount of IL-1β and TNFα in the plasma supernatant is then determined by ELISA.

TNF-α [3] = assay: In vitro test with PBMCs, LPS-stimulated TNFα release (ELISA); type: cell-based; settings: human PBMCs, LPS 4 hours, read-out: IC50 (μM) PBMCA TNF-α
IL-1β [4] = assay: In vitro test with human whole blood, LPS-stimulated IL-1β release (ELISA); type: cell-based; settings: read-out: K50 (μM) Whole blood IL-1β
Method: as §1, §2, §3

p 38 = p 38 (Homo sapiens, UniProt Q16539); assay: Kinase assay (activated p38a, ATF2 substrate, ELISA readout); type: biochemical; settings: ATF2, 100 μM ATP
Method: The reaction is stopped by placing the samples on ice, adding DPBS buffer and then centrifuging at 15 880 g for 12 min. The amount of IL-1β and TNFα in the plasma supernatant is then determined by ELISA. 2) Kinase Assay • At 37° C., microtiter plates were coated for one hour with 50 μl of ATF2 solution (20 μg/ml). The plates were washed three times with water, and 50 μl of kinase mixture (50 mM tris-HCl, 10 mM MgCl2, 10 mM β-glycerol phosphate, 10 μg/ml of BSA, 1 mM DTT, 100 μM ATP, 100 μM Na3VO4, 10 ng of activated p38a) with or without inhibitor were added into the wells, and the plates were incubated at 37° C. for 1 hour. The plates were washed three times and then incubated with phosphorus-ATF-2 antibody for one hour. The plates were once more washed three times, and goat-antirabbit IgG labeled with alkaline phosphatase was added at 37° C. for one hour (to fix antibody-phosphorylated protein/substrate complex). The plates were washed three times, and the alkaline phosphatase/substrate solution (3 mM 4-NPP, 50 mM NaHCO3, 50 mM MgCl2, 100 μl/well) was added at 37° C. for 1.5 hours. […] The IC50 values were calculated.

[5] = human whole blood, 1 μg/ml LPS 4 hours

p 38, sequence (Q16539 whole entry): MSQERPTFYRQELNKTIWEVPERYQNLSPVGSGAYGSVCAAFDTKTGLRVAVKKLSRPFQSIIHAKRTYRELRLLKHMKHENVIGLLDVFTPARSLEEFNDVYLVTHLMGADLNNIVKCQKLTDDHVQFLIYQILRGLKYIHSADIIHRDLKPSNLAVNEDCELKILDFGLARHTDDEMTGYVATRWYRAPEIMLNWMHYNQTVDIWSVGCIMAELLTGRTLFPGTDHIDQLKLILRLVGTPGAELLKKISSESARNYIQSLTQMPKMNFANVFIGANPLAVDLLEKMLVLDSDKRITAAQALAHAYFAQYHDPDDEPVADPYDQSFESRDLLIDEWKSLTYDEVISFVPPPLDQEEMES

| SMILES | IC50 (IL-1β [1]; PBMC) | IC50 (TNF-α [2]) | IC50 (TNF-α [3]; PBMC) | IC50 (IL-1β [4]; [5]) | IC50 (p 38) | IC50 (IL-1β [1]) | IC50 (TNF-α [3]) | IC50 (IL-1β [4]; Homo sapiens, 4 h) |
| --- | --- | --- | --- | --- | --- | --- | --- | --- |
| Fc1ccc(-c2nc(SCc3ccccc3)[nH]c2-c2ccnc(Cl)c2)cc1 [Compound 26a, 4-[2-Benzylsulfanyl-5-(4-fluorophenyl)-3H-imidazol-4-yl]-2-chloropyridine] | 1.8 µM |  | 60 µM |  |  |  |  |  |
| Fc1ccc(-c2nc(SCc3ccccc3)[nH]c2-c2ccnc(F)c2)cc1 [Compound 26b, 4-[2-Benzylsulfanyl-5-(4-fluorophenyl)-3H-imidazol-4-yl]-2-fluoropyridine] | 2.9 µM |  | 40.5 µM |  | 4.2 µM |  |  |  |
| CSc1nc(-c2ccc(F)cc2)c(-c2ccnc(F)c2)[nH]1 [Compound 25b, 2-Fluoro-4-[5-(4-fluorophenyl)-2-methylsulfanyl-3H-imidazol-4-yl]pyridine] | 0.3 µM |  | 2.8 µM |  | 3.8 µM |  |  |  |
| C[S+]([O-])c1ccc(CSc2nc(-c3ccc(F)cc3)c(-c3ccnc(NCc4ccccc4)c3)[nH]2)cc1 (centres unmarked) [Compound 27c, Benzyl-{4-[5-(4-fluorophenyl)-2-(4-methanesulfinylbenzylsulfanyl)-3H-imidazol-4-yl]pyridin-2-yl}amine] | 0.47 µM |  | 2 µM |  | 1.45 µM |  |  |  |
| CSc1nc(-c2ccc(F)cc2)c(-c2ccnc(NCc3ccc(Cl)c(Cl)c3)c2)[nH]1 [Compound 25j, (3,4-Dichlorobenzyl)-{4-[5-(4-fluorophenyl)-2-methylsulfanyl-3H-imidazol4-yl]-pyridin-2-yl}amine] | 0.23 µM |  | 0.72 µM |  | 0.7 µM |  |  |  |
| C[S+]([O-])c1ccc(CSc2nc(-c3ccc(F)cc3)c(-c3ccnc(Cl)c3)[nH]2)cc1 (centres unmarked) [Compound 27a, 2-Chloro-4-[5-(4-fluorophenyl)-2-(4-methanesulfinylbenzylsulfanyl)-3H-imidazol-4-yl]pyridine] | 2.1 µM |  | 12 µM |  |  |  |  |  |
| CSc1nc(-c2ccc(F)cc2)c(-c2ccnc(OC(C)C)c2)[nH]1 [Compound 25c, 4-[5-(4-Fluorophenyl)-2-methylsulfanyl-3H-imidazol-4-yl]-2-isopropoxypyridin] | 2.7 µM | 7.2 µM | 4.6 µM | 2.2 µM | 8.7 µM |  |  |  |
| CSc1nc(-c2ccc(F)cc2)c(-c2ccnc(NC(C)c3ccccc3)c2)[nH]1 (racemic) [Compound 25m, (RS)-{4-[5-(4-Fluorophenyl)-2-methylsulfanyl-3H-imidazol-4-yl]pyridin-2-yl}-(1-phenylethyl)amine] |  |  |  |  |  |  |  | 0.99 µM |
| C[S+]([O-])c1ccc(CSc2nc(-c3ccc(F)cc3)c(-c3ccnc(F)c3)[nH]2)cc1 (centres unmarked) [Compound 27b, 2-Fluoro-4-[5-(4-fluorophenyl)-2-(4-methanesulfinylbenzylsulfanyl)-3H-imidazol-4-yl]pyridine] | 2.45 µM |  | 6.9 µM |  | 9.3 µM |  |  |  |
| CSc1nc(-c2ccc(F)cc2)c(-c2ccnc(NCc3ccccc3)c2)[nH]1 [Compound 25f, Benzyl{4-[S-(4-fluorophenyl)-2-methylsulfanyl-3H-imidazol-4-yl]pyridin-2-yl}-amine] |  |  |  |  | 0.65 µM | 0.108 µM | 0.63 µM |  |
| CSc1nc(-c2ccc(F)cc2)c(-c2cc[nH]c(=O)c2)[nH]1 [Compound 25e, 4-[5-(4-Fluorophenyl)-2-methylsulfanyl-3H-imidazol-4-yl]-1H-pyridin-2-one] | 0.5 µM |  | 3.1 µM |  |  |  |  |  |
| CSc1nc(-c2ccc(F)cc2)c(-c2ccnc(Cl)c2)[nH]1 [Compound 25a, 2-Chloro-4-[5-(4-fluorophenyl)-2-methylsulfanyl-3H-imidazol-4-yl]pyridine] | 0.35 µM |  | 2.2 µM |  |  |  |  |  |
| Fc1ccc(-c2nc(SCc3ccccc3)[nH]c2-c2ccnc(NCc3ccccc3)c2)cc1 [Compound 26c, Benzyl-{4-[2-benzylsulfanyl-5-(4-fluorophenyl)-3H-imidazol-4-yl]pyridin-2-yl}-amine] | 0.2 µM |  | 3.2 µM |  | 1.42 µM |  |  |  |

Further molecules by falling IC50 (IL-1β [1]; PBMC), results first:

| IC50 (IL-1β [1]; PBMC) | IC50 (TNF-α [2]) | IC50 (TNF-α [3]; PBMC) | IC50 (IL-1β [4]; [5]) | IC50 (p 38) | IC50 (IL-1β [1]) | IC50 (TNF-α [3]) | SMILES | IC50 (IL-1β [4]; Homo sapiens, 4 h) |
| --- | --- | --- | --- | --- | --- | --- | --- | --- |
| 0.18 µM |  | 21 µM |  |  |  |  | COc1ccc(CNc2cc(-c3[nH]c(SCc4ccccc4)nc3-c3ccc(F)cc3)ccn2)cc1 [Compound 26e, {4-[2-Benzylsulfanyl-5-(4-fluorophenyl)-3H-imidazol-4-yl]pyridin-2-yl}-(4-methoxybenzyl)amine] |  |
| 0.15 µM |  | 1.9 µM |  |  |  |  | COc1cc(-c2[nH]c(SC)nc2-c2ccc(F)cc2)ccn1 [Compound 25d, 4-[5-(4-Fluorophenyl)-2-methylsulfanyl-3H-imidazol-4-yl]-2-methoxypyridine] |  |
| 0.15 µM | 14.8 µM | 0.5 µM | 13.3 µM | 0.95 µM |  |  | CSc1nc(-c2ccc(F)cc2)c(-c2ccnc(NCc3ccc(Cl)cc3)c2)[nH]1 [Compound 25i, (4-Chlorobenzyl)-{4-[5-(4-fluorophenyl)-2-methylsulfanyl-3H-imidazol-4-yl]-pyridin-2-yl}amine] |  |
| 0.085 µM | 17.3 µM | 0.67 µM | 22.3 µM | 0.83 µM |  |  | CSc1nc(-c2ccc(F)cc2)c(-c2ccnc(NCc3ccc(C)cc3)c2)[nH]1 [Compound 25h, {4-[5-(4-Fluorophenyl)-2-methylsulfanyl-3H-imidazol-4-yl]pyridin-2-yl}-(4-methylbenzyl)amine] |  |
| 0.056 µM |  | 0.64 µM |  | 0.79 µM |  |  | COc1ccc(CNc2cc(-c3[nH]c(SC)nc3-c3ccc(F)cc3)ccn2)cc1 [Compound 25g, {4-[5-(4-Fluorophenyl)-2-methylsulfanyl-3H-imidazol-4-yl]pyridin-2-yl}-(4-methoxybenzyl)amine] |  |
| 0.045 µM |  | 2.7 µM |  | 0.38 µM |  |  | CC(Nc1cc(-c2[nH]c(SCc3ccccc3)nc2-c2ccc(F)cc2)ccn1)c1ccccc1 (racemic) [Compound 26d, (RS)-{4-[2-Benzylsulfanyl-S-(4-fluorophenyl)-3H-imidazol-4-yl]pyridin-2-yl}-(1-phenylethyl)amine] |  |
| 0.04 µM | 10 µM | 0.91 µM | 15.7 µM | 0.27 µM |  |  | CC(Nc1cc(-c2[nH]c(SCc3ccc([S+](C)[O-])cc3)nc2-c2ccc(F)cc2)ccn1)c1ccccc1 (racemic) [Compound 27d, (RS)-{4-[5-(4-Fluorophenyl)-2-(4-methanesulfinylbenzylsulfanyl)-3H-imidazol-4-yl]pyridin-2-yl}-(1-phenylethyl)amine] |  |
| 0.031 µM | 14.9 µM | 0.35 µM | 17.1 µM | 0.24 µM |  |  | CSc1nc(-c2ccc(F)cc2)c(-c2ccnc(NCCc3ccccc3)c2)[nH]1 [Compound 25l, {4-[5-(4-Fluorophenyl)-2-methylsulfanyl-3H-imidazol4-yl]pyridin-2-yl}-phenethylamine] |  |
| 0.03 µM |  | 0.34 µM |  | 0.13 µM |  |  | CSc1nc(-c2ccc(F)cc2)c(-c2ccnc(Nc3ccccc3)c2)[nH]1 [Compound 25k, {4-[5-(4-Fluorophenyl)-2-methylsulfanyl-3H-imidazol-4-yl]pyridin-2-yl}-phenylamine] |  |
